Results: PMC10865860 (mBio, 2023)

Test system: SARS-CoV-2 Omicron subvariant XBB.1.16
Set-up: species or system K18-hACE2 mice
Conditions: mouse, in vivo

`COc1ccccc1C1CC1COC(=O)NC(CC(C)C)C(=O)NC(CC1CCNC1=O)C(O)S(=O)(=O)O` (stereo not shown) [11d] was tested. Which “body weight loss compared to vehicle” value did it give?
The value was “reduced weight losses”.

And the “lung edema average score” value?
The value was less than 0.5.

What about the “viral titers in nasal wash, nasal turbinate, and lungs compared to vehicle” value of the same compound?
Its value is “significantly lower”.

And the “fatality by 14 days after virus infection” value (ip)?
The value was 20%.
